# Assay results: PubChem BioAssay AID743394 (Broad Institute, 2014)
# The source made the active and inactive calls.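 How the source made its calls: active means 40% activation versus positive control reached by fitted dose-response curve at or below highest valid tested dose; inconclusive means poor fit quality, or flat fit with activation between 30% and 70%; inactive means the rest.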
# System: 68-5-11 mouse fibroblast XiGFP reporter, % GFP-positive imaging, 3 d
# Assay: Xi-linked GFP reactivating small molecules – imaging, 68-5-11 mouse fibroblasts, cherry-pick, dose response (AID 743394);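 further: sensitizer 5-aza-dC present in the wells at 0.5 mM final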
# Settings: cells co-treated with 5-aza-dC sensitizer
row,Structure (SMILES),AC40
1,O=C1c2cccc3c([N+](=O)[O-])ccc(c23)C(=O)N1Cc1cccnc1,10100 nM
2,N#C/C(=C/c1ccc(-c2ccccc2)o1)c1nc(-c2cccs2)cs1,5050 nM
3,Oc1ccc(/C=N/Nc2ccnc3cc(Cl)ccc23)c(O)c1,> 19500 nM (inactive)
4,Cc1cc(C)cc(NC(=O)/C=C/c2ccc([N+](=O)[O-])s2)c1,1700 nM
5,CC(=O)Nc1sc(/C(C#N)=C/c2ccc(Cl)c(Cl)c2)nc1-c1ccc(C)cc1,1920 nM
6,COc1ccc(NC(=O)C(C)N2C(=O)c3ccccc3C2=O)c(OC)c1 (stereo not drawn),9060 nM
7,CC(=NNc1nc2ccccc2o1)c1cc2ccccc2cn1,2860 nM
8,CCN(CC)C1=CC2=CC(=C(C#N)C#N)CCC2CC1 (stereo not drawn),8770 nM
9,COc1ccc(-[n+]2c(C)cc(/C=C3\Sc4ccccc4N3C)cc2C)cc1,220 nM
10,COc1cc2c3nnc(-c4ccc(F)cc4)c-3cn(Cc3ccccc3F)c2cc1OC,1570 nM
11,COc1ccc(NC(=O)Nc2ccc3c(c2)CC(=O)N([C@H](C)CO)C[C@H](C)[C@@H](CN(C)S(=O)(=O)c2ccc(F)cc2)O3)cc1,18600 nM
12,CC(=O)[C@@]1(O)Cc2c(O)c3c(c(O)c2[C@H](O[C@H]2C[C@H](N)[C@H](O)[C@H](C)O2)C1)C(=O)c1ccccc1C3=O,1090 nM
13,CCCCNc1ccc2c3c(cccc13)C(=O)N(CCCC)C2=O,927 nM
